{"source": "patent US11453689B2", "about": "“3-pyrrolidine-indole derivatives as serotonergic psychedelic agents for the treatment of CNS disorders” (Mindset Pharma Inc., priority 2020, dated 2022)", "system": "head-twitch response (HTR) in male C57BL6 mice", "assay": "Mouse head-twitch response (HTR)", "format": "in vivo", "settings": "M100907 0.5 mg/kg IP before I-2 10 mg/kg SC", "experimental": "Male, C57BL/6J mice (body weight range 20-30 g) were dosed with the appropriate dose of test article, and following a 1-minute pre-treatment time, placed in individual observation chambers. Animals were visually assessed for the incidence head twitches continuously over a 1 hr period. Head twitches were defined as a rapid jerk of the head which was not elicited by an external tactile stimulus (Come and Pickering, Psychopharmacologia, 1967, 11(1): 65-78). Each head twitch was individually counted by a trained observer, and the data expressed as the mean±SEM of 6-10 mice per group. Mice were used in a single experiment only.\nThe effect of various doses of exemplary compound of Formula I, I-2, on head-twitch response (HTR) in male C57BL6 mice were measured. The mice were treated with compound I-2 (0.03-10 mg/kg, SC) by SC route (N=6 mice/dose), and the total number of head twitches were recorded over a 1h period. Data is expressed as mean±SEM. The induction of head twitches elicited by 5-HT2A receptor agonists is believed to represent a behavioural proxy of their psychedelic effects.\nTo evaluate the involvement of 5-HT2A receptor on the HTR induced by exemplary compounds of Formula I, mice were pretreated with the selective 5-HT2AR antagonist M100907 (also known as volinanserin) prior to the administration of exemplary compounds of Formula I, for example, 1-2 (10 mg/kg SC)."}
{"smiles": "[2H]C([2H])([2H])N1CCC[C@@H]1Cc1c[nH]c2cccc(O)c12", "note": "[Compound I-2, (R)-3-((1-(methyl-d3)pyrrolidin-2-yl)methyl)-1H-indol-4-ol]", "values": [{"measurement": "effect of I-2 on HTR after pretreatment with 5-HT2A antagonist M100907", "value": "completely blocked"}]}
